Measured values from the NIST ThermoML archive (doi:10.1016/j.jct.2013.11.001).
Numbers after ± are expanded uncertainties.

Experiment: cn = amount concentration of the nth substance listed, in mol/dm3
Settings: 298.15 K, 101 kPa, Liquid, c1 = 0.1; for speed of sound: Sing-around technique in a fixed-path interferometer; for mass density: Vibrating tube method

| speed of sound [m/s] | mass density [kg/m3] | SMILES |
| --- | --- | --- |
| 1502 ± 1.2 | 998.575 ± 0.11 | CCCCCCCCCCCC[N+](C)(C)C.[Br-] [dodecyltrimethylammonium bromide] + O |
| 1499.5 ± 1.2 | 998.003 ± 0.11 | CCCCCCCCCCCCCC[N+](C)(C)C.[Br-] [tetradecyltrimethylammonium bromide] + O |
